16 compounds from patent US5686486A, “4-hydroxy-benzopyran-2-ones and 4-hydroxy-cycloalkyl[b]pyran-2-ones useful to treat retroviral infections” (priority 1995, dated 1997) can be followed below.

Test [1] addresses T1, HIV-1 protease (Human immunodeficiency virus type 1 group M subtype B, UniProt P04585). The test is described as follows: biochemical. The settings on record: for inhibition at 0.123 µM: read-out: HIV-1 Protease % Inhib, dose 0.123 uM; for inhibition at 0.37 µM: read-out: HIV-1 Protease % Inhib, dose 0.370 uM; for inhibition at 1.1 µM: read-out: HIV-1 Protease % Inhib, dose 1.100 uM; for inhibition at 3.3 µM: read-out: HIV-1 Protease % Inhib, dose 3.300 uM; for inhibition at 10 µM: read-out: HIV-1 Protease % Inhib, dose 10.000 uM; for inhibition at 30 µM: read-out: HIV-1 Protease % Inhib, dose 30.000 uM; for inhibition at 100 µM: read-out: HIV-1 Protease % Inhib, dose 100.000 uM. A digest of the protocol:
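Percent inhibition derived from fluorescent cleavage product separated by filtration after streptavidin-bead capture of intact biotin/FITC substrate. Reaction: enzyme (10 μl, 0.1 μM stock) with substrate (20 μl, 0.2 μM stock) and compound, 1 h at room temperature in dark, pH 5.5 acetate buffer with 1.0 M NaCl and 0.05% NP-40.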

The target of test [2] is T1, HIV-1 protease. The test is described as follows: biochemical. The settings on record: read-out: HIV-1 FITC KI. How it is done:
Determination of Ki values utilizes the same materials and equipment employed for percent inhibition studies. Two-fold serial dilutions are made for a given inhibitor from 2, 3 or 4 starting concentrations with a total of 24, 36 or 48 individual inhibitor concentrations. These dilutions are performed utilizing the BioMek robotics system. The assay consists of 10 μL of 40 nM HIV-1 protease, 10 μL of the various inhibitor concentrations, and 20 μL of 200 μM substrate (40 μL total). The reaction is allowed to proceed for 90 min at room temperature, terminated with 40 μL of avidin beads and processed (supra vide). An inhibitor with a known Ki is run in parallel to verify the validity of the assay. The data is processed utilizing a computer program employing a nonlinear least square analysis of the data to generate the Ki values.

Values joined by “and” are separate entries in the source; they are usually repeats but may differ in a detail not shown here. Identical values can stand only once. Where only a bound is given, the exact number is not on record here.

On to `CCCC(c1cccc(NS(=O)(=O)c2ccc(C#N)cc2)c1)c1c(O)c2c(oc1=O)CCCCCC2` (single isomer, unassigned) [Example 439, (R or S)-Benzenesulfonamide, 4-cyano-N-[3-[1-(5,6,7,8,9,10-hexahydro-4-hydroxy-2-oxo-2H-cycloocta[b]pyran-3-yl)butyl]phenyl]-], for which the “HIV-1 Protease % Inhib” value amounted to 60.96% at HIV-1 protease [1] (dose 0.123 uM); 68.15% on HIV-1 protease [1] (dose 0.370 uM); 92.17% on HIV-1 protease [1] (dose 1.100 uM); 92.32% at HIV-1 protease [1] (dose 3.300 uM); 96.45% on HIV-1 protease [1] (dose 10.000 uM); 94.26% on HIV-1 protease [1] (dose 30.000 uM). Further, the Ki at HIV-1 protease [2] is 3 nM.

`O=C(CCN1CCCCC1)Nc1cccc(C(c2c(O)c3c(oc2=O)CCCCCC3)C2CC2)c1` (stereo not shown) [Example 205, 1-Piperidinepropanamide, N-[3-[cyclopropyl(5,6,7,8,9,10-hexahydro4-hydroxy-2-oxo-2H-cycloocta[b]pyran-3-yl)methyl]phenyl]-]: on HIV-1 protease [1], the inhibition at 0.123 µM was determined as 12.6%, the inhibition at 0.37 µM amounted to 56.4%, the inhibition at 1.1 µM was found to be 76.6% and the inhibition at 3.3 µM was 94.2%. On HIV-1 protease [1], the inhibition at 10 µM worked out at 109% and the inhibition at 30 µM came out at 104%. Also, the Ki on HIV-1 protease [2] was 26.1 nM.

On to `O=c1oc2c(c(O)c1C(c1cccc(NS(=O)(=O)c3ccccc3F)c1)C1CC1)CCCCCC2` (stereo not shown) [Example 281, N-[3-[Cyclopropyl(5,6,7,8,9,10-hexahydro-4-hydroxy-2-oxo-2H-cycloocta[b]pyran-3-yl)methyl]phenyl]-2-fluoro-benzenesulfonamide], for which, on HIV-1 protease [1], the inhibition at 0.123 µM was 55.5%, the inhibition at 0.37 µM worked out at 93.5%, the inhibition at 1.1 µM turned out to be 99.3% and the inhibition at 3.3 µM turned out to be 109%. In addition, on HIV-1 protease [1], the inhibition at 10 µM was 105% and the inhibition at 30 µM was 101%. Also, the Ki at HIV-1 protease [2] came out at 10.6 nM.

In the case of `O=c1oc2c(c(O)c1C(c1cccc(NS(=O)(=O)Nc3ccccc3)c1)C1CC1)CCCCCC2` (stereo not shown) [Example 397], on HIV-1 protease [1], the inhibition at 0.123 µM is 35.7%, the inhibition at 0.37 µM turned out to be 92.9%, the inhibition at 1.1 µM was 105% and the inhibition at 3.3 µM is 109%. Also, on HIV-1 protease [1], the inhibition at 10 µM stood at 116% and the inhibition at 30 µM amounted to 113%. Further, the Ki at HIV-1 protease [2] was 7.3 nM.

On to `CCCC1CCCCCc2c1oc(=O)c([C@@H](c1ccccc1)C1CC1)c2O` (mixture of isomers) [Example 232, 3-(R)-(Cyclopropylphenylmethyl)-4-hydroxy-10-(R and S)-propyl-5,6,7,8,9,10-hexahydro-cycloocta[b]pyran-2-one], for which, at HIV-1 protease [1], the inhibition at 0.123 µM is 19.3%, the inhibition at 0.37 µM was determined as 51.2%, the inhibition at 1.1 µM is 80.4% and the inhibition at 3.3 µM was 95.3%. In addition, on HIV-1 protease [1], the inhibition at 10 µM amounted to 104% and the inhibition at 30 µM was 95%. In addition, the inhibition constant Ki at HIV-1 protease [2] came to 30 nM.

As for `O=c1oc2c(c(O)c1C(c1cccc(NS(=O)(=O)c3ccc(Cl)c(Cl)c3)c1)C1CC1)CCCCCC2` (stereo not shown) [Example 269, 3,4-Dichloro-N-[3-[cyclopropyl(5,6,7,8,9,10-hexahydro-4-hydroxy-2-oxo-2H-cycloocta[b]pyran-3-yl)methyl]phenyl]-benzenesulfonamide], at HIV-1 protease [1], the inhibition at 0.123 µM was determined as 77.1%, the inhibition at 0.37 µM turned out to be 95.7%, the inhibition at 1.1 µM turned out to be 112% and the inhibition at 3.3 µM worked out at 114%. At HIV-1 protease [1], the inhibition at 10 µM was determined as 125% and the inhibition at 30 µM is 114%. For the same compound, the Ki on HIV-1 protease [2] was 5.3 nM and 2.9 nM.

As to `NC(=O)c1ccc(S(=O)(=O)Nc2cccc(C(c3c(O)c4c(oc3=O)CCCCCC4)C3CC3)c2)cc1` (stereo not shown) [Example 365A, 4-[[[3-[Cyclopropyl(5,6,7,8,9,10-hexahydro-4-hydroxy-2-oxo-2H-cycloocta[b]pyran-3-yl)methyl]phenyl]amino]sulfonyl]-benzamide], on HIV-1 protease [1], the inhibition at 0.123 µM stood at 83.8%, the inhibition at 0.37 µM worked out at 106%, the inhibition at 1.1 µM is 115% and the inhibition at 3.3 µM is 116%. On HIV-1 protease [1], the inhibition at 10 µM stood at 117% and the inhibition at 30 µM turned out to be 116%. For the same compound, the Ki at HIV-1 protease [2] stood at 1.86 nM.

As to `CCC(c1ccccc1)c1c(O)c2c(oc1=O)CCCC2` (stereo not drawn) [Example 109, 5,6,7,8-Tetrahydro-4-hydroxy-3-(1-phenylpropyl)-2H-l-benzopyran-2-one], the inhibition at 1 µM on HIV-1 protease [1] (read-out: HIV-1 Protease % Inhib, dose 1.000 uM) was under 10%. Besides, on HIV-1 protease [1], the inhibition at 10 µM stood at 71.9% and the inhibition at 100 µM came to 92%. Besides, the Ki on HIV-1 protease [2] is 1090 nM.

Regarding `Cc1c(Cl)cccc1S(=O)(=O)Nc1cccc(C(c2c(O)c3c(oc2=O)CCCCCC3)C2CC2)c1` (stereo not shown) [Example 311, 3-Chloro-N-[3-[cyclopropyl(5,6,7,8,9,10-hexahydro-4-hydroxy-2-oxo-2H-cycloocta[b]pyran-3-yl)methyl]phenyl]-2-methyl-benzenesulfonamide], on HIV-1 protease [1], the inhibition at 0.123 µM was found to be 20.8%, the inhibition at 0.37 µM was determined as 71.2%, the inhibition at 1.1 µM is 86.4% and the inhibition at 3.3 µM is 92%. Further, at HIV-1 protease [1], the inhibition at 10 µM was 99.5% and the inhibition at 30 µM amounted to 99.5%. Moreover, the inhibitory constant (Ki) on HIV-1 protease [2] came out at 6.33 nM.

`O=c1oc2c(c(O)c1C(c1cccc(NS(=O)(=O)CCCCl)c1)C1CC1)CCCCCC2` (stereo not shown) [Example 331, 3-Chloro-N-[3-[cyclopropyl(5,6,7,8,9,10-hexahydro-4-hydroxy-2-oxo-2H-cycloocta[b]pyran-3-yl)methyl]phenyl]-1-propanesulfonamide]: at HIV-1 protease [1], the inhibition at 0.123 µM amounted to 66.4%, the inhibition at 0.37 µM was 86.9%, the inhibition at 1.1 µM amounted to 99.2% and the inhibition at 3.3 µM turned out to be 119%. Besides, at HIV-1 protease [1], the inhibition at 10 µM stood at 121% and the inhibition at 30 µM is 105%. Also, the Ki at HIV-1 protease [2] was determined as 4.8 nM.

As for `O=c1oc2c(c(O)c1C(c1ccccc1)C1CC1)CCCCCC2CC1CO1` (stereo not shown) [Example 163, 3-(Cyclopropylphenylmethyl)-5,6,7,8,9,10-hexahydro-4-hydroxy-10-(oxiranylmethyl)-2H-cycloocta[b]pyran-2-one], on HIV-1 protease [1], the inhibition at 0.123 µM came out at 17.7%, the inhibition at 0.37 µM is 56%, the inhibition at 1.1 µM is 84.2% and the inhibition at 3.3 µM was found to be 98.6%. Further, on HIV-1 protease [1], the inhibition at 10 µM was determined as 107% and the inhibition at 30 µM is 105%. Moreover, the Ki on HIV-1 protease [2] is 34 nM.

Regarding `O=C(Cc1ccccc1)Nc1cccc(C(c2c(O)c3c(oc2=O)CCCCCC3)C2CC2)c1` (stereo not shown) [Example 207, N-[3-[Cyclopropyl(5,6,7,8,9,10-hexahydro-4-hydroxy-2-oxo-2H-cycloocta[b]pyran-3-yl)methyl]phenyl]-benzacetamide], on HIV-1 protease [1], the inhibition at 0.123 µM was determined as 14%, the inhibition at 0.37 µM worked out at 44.1%, the inhibition at 1.1 µM was found to be 74% and the inhibition at 3.3 µM came out at 93.8%. Also, at HIV-1 protease [1], the inhibition at 10 µM turned out to be 83% and the inhibition at 30 µM worked out at 78.7%. The Ki at HIV-1 protease [2] was 33.4 nM.

As for `O=c1oc2c(c(O)c1C(C1CC1)C1CC1)CCCCCC2Cc1ccccc1` (stereo not shown) [Example 123, 10-Benzyl-3-dicyclopropylmethyl-4-hydroxy-5,6,7,8,9,10-hexahydro-cycloocta[b]pyran-2-one], the inhibition at 0.41 µM at HIV-1 protease [1] (read-out: HIV-1 Protease % Inhib, dose 0.410 uM) was 23.7%. Also, the inhibition at 1.23 µM on HIV-1 protease [1] (read-out: HIV-1 Protease % Inhib, dose 1.230 uM) came to 59.1%. Moreover, the inhibition at 3.7 µM at HIV-1 protease [1] (read-out: HIV-1 Protease % Inhib, dose 3.700 uM) worked out at 82.5%. In addition, the inhibition at 11 µM on HIV-1 protease [1] (read-out: HIV-1 Protease % Inhib, dose 11.000 uM) was 88.3%. In addition, the inhibition at 33 µM at HIV-1 protease [1] (read-out: HIV-1 Protease % Inhib, dose 33.000 uM) was found to be 83.9%. On HIV-1 protease [1], the inhibition at 100 µM was 78.9%. For the same compound, at HIV-1 protease [2], the Ki stood at 260 nM.

As for `O=c1oc2c(c(O)c1[C@@H](c1cccc(NS(=O)(=O)c3ccc(Cl)cc3)c1)C1CC1)CCCCCC2` [Example 251, (+)-4-Chloro-N-[3-[cyclopropyl(5,6,7,8,9,10-hexahydro-4-hydroxy-2-oxo-2H-cycloocta[b]pyran-3-yl)methyl]phenyl]-benzenesulfonamide], the Ki on HIV-1 protease [2] was found to be 1.25 nM.

Turning to `CCCC1CCCCCc2c1oc(=O)c([C@@H](c1ccccc1)C1CC1)c2O` (single isomer, unassigned) [Example 233, 3-(R)-(Cyclopropylphenylmethyl)4-hydroxy-10-(R or S)-propyl-5,6,7,8,9,10-hexahydro-cycloocta[b]pyran-2-one], the Ki on HIV-1 protease [2] is 147 nM and 180 nM and 302 nM.

`O=c1oc2c(c(O)c1C(c1ccccc1)C1CC1)CCCCC2` (single isomer, unassigned) [Example 230, (R or S)-3-(Cyclopropylphenylmethyl)-6,7,8,9-tetrahydro-4-hydroxy-cyclohepta[b]pyran-2(5H)-one]: the Ki on HIV-1 protease [2] was 264 nM and 280 nM.
